The text below walks through data of PMC7129073 (Clinical Microbiology and Infection, 2015).

In brackets after ≈: the same amount, converted by molar mass. Entries after “also recorded” stand apart in the source; their conditions may differ. Marks after values point to notes of the source that are not given here.

Assay [1] has as its system E. coli (OXA 5 transformant). Description: NCCLS agar dilution MIC. The assay is classed as cell-based. To be noted: Escherichia coli. On the technique in general: In agar dilution, organisms are placed on agar that contains the substance at set levels.
The subject of assay [2] is Citrobacter freundii (ceftazidime R). The assay is described as follows: NCCLS agar dilution MIC. The assay is classed as cell-based. The following applies: n=6.
Assay [3] relates to E. coli (TEM 10 transformant). The assay is described as follows: NCCLS agar dilution MIC. Type of assay: cell-based. To be noted: Escherichia coli.
Assay [4] concerns Morganella morganii (ceftazidime R). The assay is described as follows: NCCLS agar dilution MIC. The assay is classed as cell-based. Further details: unit not given beside the values. To be noted: n=2.
Assay [5] deals with E. faecalis. Description: MIC, NCCLS methods. The assay is classed as cell-based. To be noted: Enterococcus faecalis.
Assay [6] concerns A. haemolyticum. Description: MIC, NCCLS methods. The assay is classed as cell-based. To be noted: N=9.
Assay [7] relates to S. aureus (MS). The assay is described as follows: MIC, NCCLS methods. To be noted: Staphylococcus aureus. Type of assay: cell-based.
Assay [8] deals with B. pertussis. Description: MIC, NCCLS methods. The assay is classed as cell-based. To be noted: N=10.
Assay [9] has as its system N meningitidis. The assay is described as follows: MIC, NCCLS methods. The assay is classed as cell-based.
The subject of assay [10] is Streptococcus spp. Description: MIC, NCCLS methods. The assay is classed as cell-based.
The test system of assay [11] is S. pneumoniae. Description: MIC, NCCLS methods. The assay is classed as cell-based. The following applies: Streptococcus pneumoniae.
Assay [12] concerns S. progenies. Description: MIC, NCCLS methods. Type of assay: cell-based. The following applies: Streptococcus pyogenes.
Assay [13] concerns S. aureus (MR). Description: MIC, NCCLS methods. The assay is classed as cell-based. To be noted: Staphylococcus aureus.
Assay [14] concerns methicillin resistant Staphylococcus aureus. Description: NCCLS agar dilution MIC. The assay is classed as cell-based. The following applies: Staphylococcus aureus.
Assay [15] concerns H. influenzae. The assay is described as follows: MIC, NCCLS methods. Type of assay: cell-based. The following applies: Haemophilus influenzae.
The test system of assay [16] is methicillin susceptible Staphylococcus aureus. Description: NCCLS agar dilution MIC. To be noted: Staphylococcus aureus. The assay is classed as cell-based.
In assay [17] the test system is H. parainfluenzae. The assay is described as follows: MIC, NCCLS methods. To be noted: Haemophilus parainfluenzae. Type of assay: cell-based.
Assay [18] concerns M. catarrhalis. The assay is described as follows: MIC, NCCLS methods. The assay is classed as cell-based. The following applies: Moraxella catarrhalis.
The test system of assay [19] is E. faecium. Description: MIC, NCCLS methods. The assay is classed as cell-based. The following applies: Enterococcus faecium.
Assay [20] deals with viridans group Streptococcus spp. The assay is described as follows: NCCLS broth microdilution MIC, 50 mg/L calcium. The assay is classed as cell-based.
In assay [21] the test system is coagulase-negative Staphylococci. Description: NCCLS broth microdilution MIC, 50 mg/L calcium. Type of assay: cell-based. Background: Broth dilution looks for growth in wells or tubes with falling amounts of substance.
In assay [22] the test system is MRSA. Description: Disk diffusion. The assay is classed as cell-based, Staphylococcus aureus. To be noted: 200 isolates. (In agar diffusion tests the substance spreads into inoculated agar from a disc or well.)
Assay [23] deals with MDR-MRSA. Description: MIC, MBC. Type of assay: cell-based, Staphylococcus aureus. The following applies: time kill, two strains.
Assay [24] concerns S. aureus. The assay is described as follows: NCCLS broth microdilution MIC, 50 mg/L calcium. The assay is classed as cell-based.
Assay [25] deals with viridans group streptococci (VgS) and Streptococcus bovis. Description: Broth microdilution and disk diffusion. Type of assay: cell-based.
For assay [26], the system named is E. faecium. Description: NCCLS broth microdilution MIC, 50 mg/L calcium. Type of assay: cell-based.
Assay [27] relates to beta-haemolytic Streptococcus spp. The assay is described as follows: NCCLS broth microdilution MIC, 50 mg/L calcium. The assay is classed as cell-based.
For assay [28], the system named is E. faecalis. The assay is described as follows: NCCLS broth microdilution MIC, 50 mg/L calcium. Type of assay: cell-based.
For assay [29], the system named is Enterococcus spp. The assay is described as follows: NCCLS broth microdilution MIC, 50 mg/L calcium. The assay is classed as cell-based.
Assay [30] concerns CA-MRSA. Description: MIC, MBC. The assay is classed as cell-based, Staphylococcus aureus.
Assay [31] deals with Escherichia coli. Description: Vitek 2 susceptibility, urine isolates of children. The assay is classed as cell-based.
The subject of assay [32] is Pseudomonas aeruginosa. The assay is described as follows: MIC, strains from cystic fibrosis patients. To be noted: by MIC.
For assay [33], the system named is Acinetobacter. Description: Disk diffusion. Type of assay: cell-based. To be noted: 37 isolates selected as resistant to beta-lactams.
The test system of assay [34] is E. coli. Description: E-test susceptibility. Type of assay: cell-based, Escherichia coli.
Assay [35] relates to Klebsiella. The assay is described as follows: SMART 2003 Europe, microdilution. Type of assay: cell-based, Klebsiella spp. The following applies: 341 isolates.
For assay [36], the system named is Enterobacteriaceae. Description: SMART 2003 Europe, microdilution. The assay is classed as cell-based. To be noted: 1948 isolates.
The subject of assay [37] is P. aeruginosa strains from CF sputa. The assay is described as follows: O-serotyping. Type of assay: cell-based, Pseudomonas aeruginosa. To be noted: exposure to 1/2–1/16 MIC (ceftazidime) or 1/2–1/8 MIC (ciprofloxacin).
The subject of assay [38] is P. aeruginosa. The assay is classed as cell-based, Pseudomonas aeruginosa.
The subject of assay [39] is K. pneumoniae. Description: E-test susceptibility. The assay is classed as cell-based, Klebsiella pneumoniae.
Assay [40] deals with Enterobacter spp. The assay is described as follows: E-test susceptibility. Type of assay: cell-based.
Assay [41] deals with Escherichia coli (ECO). The assay is described as follows: Broth microdilution. The assay is classed as cell-based. The following applies: 2001.
The subject of assay [42] is Pseudomonas putida clinical isolates. Description: Agar dilution MIC. The assay is classed as cell-based.
For assay [43], the system named is E. coli. The assay is described as follows: SMART 2003 Europe, microdilution. The assay is classed as cell-based, Escherichia coli. To be noted: 1106 isolates.
Assay [44] relates to E. coli (TEM 9 transformant). The assay is described as follows: NCCLS agar dilution MIC. The assay is classed as cell-based. The following applies: Escherichia coli, n=1 per table line (three lines).
Assay [45] relates to inducible Enterobacteriaceae. Description: SMART 2003, intraabdominal isolates. Type of assay: cell-based.
Assay [46] deals with K. oxytoca. The assay is described as follows: E-test susceptibility. Type of assay: cell-based, Klebsiella oxytoca.

As a reminder, the MIC is the lowest concentration that inhibits growth of the organism.

As for `C[C@H]1[C@H](NC(=O)/C(=N\OC(C)(C)C(=O)O)c2csc(N)n2)C(=O)N1S(=O)(=O)O` [aztreonam], the MIC in [1] worked out at 16 µg/mL (≈ 36.7 µM); in assay [3], 32 µg/mL (≈ 73.5 µM). Further, in [2], the MIC range was 4 to 64 µg/mL. The “MIC (two isolates)” value in assay [4] is 2/8.
As to `CC[C@H]1OC(=O)[C@H](C)[C@@H](O[C@H]2C[C@@](C)(OC)[C@@H](O)[C@H](C)O2)[C@H](C)[C@@H](O[C@@H]2O[C@H](C)C[C@H](N(C)C)[C@H]2O)[C@](C)(O)C[C@@H](C)C(=O)[C@H](C)[C@@H](O)[C@]1(C)O` [Erythromycin A, erythromycin A], the MIC50 in [5] is over 64 µg/mL; in [7], 0.25 µg/mL (≈ 0.341 µM); in [9] it was 0.12 µg/mL (≈ 0.164 µM); in assay [10], 0.06 µg/mL (≈ 0.0818 µM); in assay [11], over 32 µg/mL; in [12], over 64 µg/mL. Besides, the MIC50 in assay [13] was over 64 µg/mL; in [14], over 64 µg/mL; in assay [15], 4 µg/mL (≈ 5.45 µM); in [16], 0.25 µg/mL (≈ 0.341 µM); in assay [17], 2 µg/mL (≈ 2.73 µM); in assay [18], 0.12 µg/mL (≈ 0.164 µM). The same compound showed an MIC50 in assay [19] of over 64 µg/mL. Besides, the MIC90 was over 64 µg/mL in [5]; over 64 µg/mL in [7]; 0.25 µg/mL (≈ 0.341 µM) in assay [9]; 0.12 µg/mL (≈ 0.164 µM) in [10]; over 32 µg/mL in [11]; over 64 µg/mL in [12]. In addition, the MIC90 in [13] is over 64 µg/mL; in [14] it was over 64 µg/mL; in [15] it was 8 µg/mL (≈ 10.9 µM); in assay [16], over 64 µg/mL; in assay [17] it was 8 µg/mL (≈ 10.9 µM); in assay [18] it was 0.12 µg/mL (≈ 0.164 µM). The compound also showed an MIC90 in assay [19] of over 64 µg/mL. Also, the values for the MIC range in assay [6] and in assay [8] were ≤0.015-0.03 ^* mg/L and 0.06 to 0.12 µg/mL, respectively.
With `CCCCCCCCCC(=O)N[C@@H](Cc1c[nH]c2ccccc12)C(=O)N[C@H](CC(N)=O)C(=O)N[C@@H](CC(=O)O)C(=O)N[C@@H]1C(=O)NCC(=O)N[C@@H](CCCN)C(=O)N[C@@H](CC(=O)O)C(=O)N[C@H](C)C(=O)N[C@@H](CC(=O)O)C(=O)NCC(=O)N[C@H](CO)C(=O)N[C@@H]([C@H](C)CC(=O)O)C(=O)N[C@@H](CC(=O)c2ccccc2N)C(=O)O[C@@H]1C` [daptomycin], the MIC range was at most 0.06 to 2 µg/mL in [20]; at most 0.06 to 1 µg/mL in [21] (OXA-R); 0.12 to 1 µg/mL in assay [21] (OXA-S); 0.12 to 2 µg/mL in assay [24] (OXA-R); at most 0.06 to 2 µg/mL in assay [24] (OXA-S); 1—8 mg/L in [26] (VAN-G (77)). The MIC range in [26] (VAN-R) was 1—4 mg/L; in assay [27], at most 0.06 to 0.5 µg/mL; in [28], at most 0.06 to 4 µg/mL; in [29], 0.5 to 4 µg/mL. The “% S” value in assay [21] (OXA-R) is 100.0%; in [21] (OXA-S) it was 100.0%; in [24] (OXA-R), 99.0%; in assay [24] (OXA-S), 99.9%; in assay [26] (VAN-G (77)), 97.4%; in [26] (VAN-R) it was 100.0%. In addition, the “% S” value in [27], in assay [28] and in assay [29] was 100.0% each time. Moreover, in assay [22], the sensitivity entry is given as “All isolates were sensitive”. For the same compound, the “Δ Log10 CFU/ml” value in [23] is listed as −4.12 Log10 CFU/ml; in assay [30] (time kill, two strains) it was −3.88 Log10 CFU/ml. Also, in assay [25], the “MIC90, range between species” value is reported as 0.06 − 1 mg/L. Moreover, the Susceptible isolates in assay [25] (915 isolates, daptomycin breakpoint ≤ 1 mg/L) amounted to 99.9%. The “time to 99.9% kill, as early as” value in assay [30] (against all strains (CA-MRSA and MDR-MRSA)) is recorded as 4 h.
For `CC(C)(O/N=C(\C(=O)N[C@@H]1C(=O)N2C(C(=O)[O-])=C(C[n+]3ccccc3)CS[C@H]12)c1csc(N)n1)C(=O)O` [ceftazidime], the values for the susceptibility rate in assay [31] (paediatric surgical unit (PSU)) and in [31] (paediatric units (PU)) were 39% and 95%, respectively. The minimal inhibitory concentration (MIC) in assay [1] is 64 µg/mL (≈ 117 µM); in [42], over 128 µg/mL; in assay [3] it was over 128 µg/mL; in assay [44] it was over 128 µg/mL. Moreover, the Susceptible isolates in assay [32] came to 84%; in [34] (ICU, SRGA breakpoints, tigecycline tentative S ≤2 μg/ml), 98%; in assay [34] (non ICU) it was 99%; in [39] (ICU), 98%; in assay [39] (non ICU), 100%; in assay [40] (ICU) it was 75%. Also, the Susceptible isolates in [40] (non ICU) is reported as 89%; in [46] (ICU), 100/100%; in assay [46] (non ICU) it was 100/100%. The compound further came in with a resistant isolates in assay [33] of 56.8%. The results for the per cent susceptible in [35], in [36] and in assay [43] were 94%, 92% and 96%, respectively. In addition, the “change of agglutination type of nine monoagglutinable strains” value in assay [37] is given as “seven strains have become auto-agglutinable; also recorded: two strains have become polyagglutinable”. The compound further displayed a resistant in assay [38] of 32%. For the same compound, the susceptible is 93.3% in assay [41] (NAL-resistant isolates) and 99.0% in [41] (NAL-susceptible isolates). Moreover, in [4], the “MIC (two isolates)” value is on record as 16/64. Also, the “% susceptible” value in [45] (A/P (N = 200)) is 59%; in assay [45] (EU (N = 354)), 75%; in assay [45] (LA (N=113)), 69%; in assay [45] (NA (N = 163)), 71%.
